According to US11547681B2, “N-acylethanolamide derivatives and uses thereof” (ELIEM THERAPEUTICS, INC., priority 2016, dated 2023):
Each block holds one compound with its values, some of them ahead of it.

Test: in vitro
Conditions: for Measured concentration of PEA (analyte) / % Remaining of Initial / Measured concentration of analyte PEA, 0 min / Measured concentration of analyte PEA, 10 min / Measured concentration of analyte PEA, 20 min / Measured concentration of analyte PEA, 30 min / Measured concentration of analyte PEA, 60 min / % Remaining of Initial, 0 min / % Remaining of Initial, 10 min / % Remaining of Initial, 20 min / % Remaining of Initial, 30 min / % Remaining of Initial, 60 min: 1 μM; for % Remaining of Initial / microsomal CLint at 1 μM / half-life at 1 μM / % Remaining of Initial, 0 min / % Remaining of Initial, 10 min / % Remaining of Initial, 20 min / % Remaining of Initial, 30 min / % Remaining of Initial, 60 min: microsomes
Description: The reaction mixture, minus cofactors, was prepared as described below. The test article was added into the reaction mixture at a final concentration of 1 μM. […] An aliquot of the reaction mixture (without cofactor) was equilibrated in a shaking water bath at 37° C. for 3 minutes. The reaction was initiated by the addition of cofactor, and the mixture was incubated in a shaking water bath at 37° C. Aliquots (100 μL) were withdrawn at 0, 10, 20, 30, and 60 minutes. All samples were immediately combined with 400 μL of ice-cold 50/50 acetonitrile/H2O containing 0.1% formic acid and internal standard to terminate the reaction. The samples were then mixed and centrifuged to precipitate proteins. Calibration standards were prepared in matched matrix. All samples and standards were assayed by LC-MS/MS using electrospray ionization for both the dosed prodrug I-9 and the expected drug (PEA). Analytical conditions are outlined in Appendix 4-1. The test article concentration at each time point was compared to the test article concentration at time 0 to determine the percent remaining at each time point. Half-lives were calculated using GraphPad software, fitting to a single-phase exponential decay equation.
Reaction mixture, minus cofactors, was prepared as described below. Test article was added into the reaction mixture at a final concentration of 1 μM. […] An aliquot of the reaction mixture (without cofactor) was equilibrated in a shaking water bath at 37° C. for 3 minutes. The reaction was initiated by the addition of cofactor, and the mixture was incubated in a shaking water bath at 37° C. Aliquots (100 μL) were withdrawn at 0, 10, 20, 30, and 60 minutes. Test article samples were immediately combined with 300 μL of ice-cold acetonitrile containing 1% formic acid. Control samples were immediately combined with 400 μL of ice-cold 50/50 acetonitrile (ACN)/dH2O containing 0.1% formic acid and internal standard to terminate the reaction. Samples were then mixed and centrifuged to precipitate proteins. Calibration standards were prepared in matched matrix. Samples and standards were assayed by LC-MS/MS using electrospray ionization for both dosed prodrug and expected drug (PEA). Analytical conditions are outlined in Appendix 8-1. Test article concentration at each time point was compared to test article concentration at time 0 to determine the percent remaining at each time point. Half-lives were calculated using GraphPad software, fitting to a single-phase exponential decay equation.
Reaction mixture, minus cofactors, was prepared as described below. Test article was added into the reaction mixture at a final concentration of 1 μM. […] An aliquot of the reaction mixture (without cofactor) was equilibrated in a shaking water bath at 37° C. for 5 minutes. Reaction was initiated by the addition of cofactor, and the mixture was incubated in a shaking water bath at 37° C. Aliquots (100 μL) were withdrawn at 0, 10, 20, 30, and 60 minutes. Test article samples were immediately combined with 300 μL of ice-cold acetonitrile containing 1% formic acid. Control samples were immediately combined with 400 μL of ice-cold 50/50 acetonitrile (ACN)/dH2O containing 0.1% formic acid and internal standard to terminate the reaction. Samples were then mixed and centrifuged to precipitate proteins. Calibration standards were prepared in matched matrix. Samples and standards were assayed by LC-MS/MS using electrospray ionization for both the dosed prodrug and the expected drug (PEA). Analytical conditions are outlined in Appendix 10-1. Test article concentration at each time point was compared to the test article concentration at time 0 to determine the percent remaining at each time point. Half-lives were calculated using GraphPad software, fitting to a single-phase exponential decay equation.
Reaction mixture, minus cofactors, was prepared as described below. Test article was added into the reaction mixture at a final concentration of 1 μM.

[1] = both, human, calculated value in parentheses
[2] = male, Sprague-Dawley, rat, 0 min
[3] = male, Sprague-Dawley, rat, 10 min
[4] = male, Sprague-Dawley, rat, 20 min
[5] = male, Sprague-Dawley, rat, 30 min
[6] = male, Sprague-Dawley, rat, 60 min
[7] = male, Sprague-Dawley, rat, 0.5 h
[8] = male, Sprague-Dawley, rat, calculated value in parentheses
[9] = male, Sprague-Dawley, rat, Half-life

Measured concentration of PEA (analyte) (both, human, 0 min): 0.063 µM | Measured concentration of PEA (analyte) (both, human, 10 min): 0.34 µM | Measured concentration of PEA (analyte) (both, human, 20 min): 0.25 µM | Measured concentration of PEA (analyte) (both, human, 30 min): 0.21 µM | Measured concentration of PEA (analyte) (both, human, 60 min): 0.070 µM | % Remaining of Initial (both, human, 0 h): 100% | % Remaining of Initial (both, human, 10 min): 2.8% | % Remaining of Initial (both, human, 20 min): <1.0% | % Remaining of Initial (both, human, 0.5 h): <1.0% | % Remaining of Initial (both, human, 1 h): <1.0% | microsomal CLint at 1 μM (both, human): > 139 µL/min/mg | microsomal CLint at 1 μM [1]: 712 µL/min/mg | half-life at 1 μM (both, human, Half-life): < 10 min | half-life at 1 μM (both, human, Half-life, calculated value in parentheses): 2 min | Measured concentration of PEA (analyte) [2]: 0.033 µM | Measured concentration of PEA (analyte) [3]: 0.041 µM | Measured concentration of PEA (analyte) [4]: 0.019 µM | Measured concentration of PEA (analyte) [5]: 0 µM | Measured concentration of PEA (analyte) [6]: 0 µM | % Remaining of Initial (male, Sprague-Dawley, rat, 0 h): 100% | % Remaining of Initial [3]: 4.3% | % Remaining of Initial [4]: 1.2% | % Remaining of Initial [7]: <1.0% | % Remaining of Initial (male, Sprague-Dawley, rat, 1 h): <1.0% | microsomal CLint at 1 μM (male, Sprague-Dawley, rat): > 139 µL/min/mg | microsomal CLint at 1 μM [8]: 624 µL/min/mg | half-life at 1 μM [9]: < 10 min | half-life at 1 μM (male, Sprague-Dawley, rat, Half-life, calculated value in parentheses): 2.2 min
Structure (SMILES): CCCCCCCCCCCCCCCC(=O)NCCOC(=O)CCC(=O)OC(CO)CO [Compound I-8]

Measured concentration of analyte PEA, 0 min (both, human, 0 min): 0.15 µM | Measured concentration of analyte PEA, 10 min (both, human, 10 min): 0.23 µM | Measured concentration of analyte PEA, 20 min (both, human, 20 min): 0.19 µM | Measured concentration of analyte PEA, 30 min (both, human, 30 min): 0.15 µM | Measured concentration of analyte PEA, 60 min (both, human, 60 min): 0.071 µM | % Remaining of Initial, 0 min (both, human, 0 h): 100% | % Remaining of Initial, 10 min (both, human, 10 min): 10% | % Remaining of Initial, 20 min (both, human, 20 min): 1.6% | % Remaining of Initial, 30 min (both, human, 0.5 h): <1.0% | % Remaining of Initial, 60 min (both, human, 1 h): <1.0% | microsomal CLint at 1 μM (both, human): 451 µL/min/mg | half-life at 1 μM (both, human, Half-life): 3.1 min | Measured concentration of analyte PEA, 0 min [2]: 0.40 µM | Measured concentration of analyte PEA, 10 min [3]: 0.11 µM | Measured concentration of analyte PEA, 20 min [4]: 0.028 µM | Measured concentration of analyte PEA, 30 min [5]: 0.0083 µM | Measured concentration of analyte PEA, 60 min [6]: 0 µM | % Remaining of Initial, 0 min (male, Sprague-Dawley, rat, 0 h): 100% | % Remaining of Initial, 10 min [3]: <1.0% | % Remaining of Initial, 20 min [4]: <1.0% | % Remaining of Initial, 30 min [7]: <1.0% | % Remaining of Initial, 60 min (male, Sprague-Dawley, rat, 1 h): <1.0% | microsomal CLint at 1 μM (male, Sprague-Dawley, rat): > 1380 µL/min/mg | half-life at 1 μM [9]: < 1 min
Structure (SMILES): CCCCCCCCCCCCCCCC(=O)NCCOC(=O)CCC [Compound I-2]

Measured concentration of analyte PEA, 0 min (both, human, 0 min): 0.014 µM | Measured concentration of analyte PEA, 10 min (both, human, 10 min): 0.020 µM | Measured concentration of analyte PEA, 20 min (both, human, 20 min): 0.025 µM | Measured concentration of analyte PEA, 30 min (both, human, 30 min): 0.022 µM | Measured concentration of analyte PEA, 60 min (both, human, 60 min): 0.016 µM | % Remaining of Initial, 0 min (both, human, 0 h): 100% | % Remaining of Initial, 10 min (both, human, 10 min): 90% | % Remaining of Initial, 20 min (both, human, 20 min): 82% | % Remaining of Initial, 30 min (both, human, 0.5 h): 79% | % Remaining of Initial, 60 min (both, human, 1 h): 62% | microsomal CLint at 1 μM (both, human): < 23.1 µL/min/mg | microsomal CLint at 1 μM [1]: 15.4 µL/min/mg | half-life at 1 μM (both, human, Calculated half-life (in parentheses)): 90 min | half-life at 1 μM (both, human, Half-life): > 60 min | Measured concentration of analyte PEA, 0 min [2]: 0.034 µM | Measured concentration of analyte PEA, 10 min [3]: 0.033 µM | Measured concentration of analyte PEA, 20 min [4]: 0.015 µM | Measured concentration of analyte PEA, 30 min [5]: 0.015 µM | Measured concentration of analyte PEA, 60 min [6]: 0.0027 µM | % Remaining of Initial, 0 min (male, Sprague-Dawley, rat, 0 h): 100% | % Remaining of Initial, 10 min [3]: 77% | % Remaining of Initial, 20 min [4]: 70% | % Remaining of Initial, 30 min [7]: 69% | % Remaining of Initial, 60 min (male, Sprague-Dawley, rat, 1 h): 57% | microsomal CLint at 1 μM (male, Sprague-Dawley, rat): < 23.1 µL/min/mg | microsomal CLint at 1 μM [8]: 18.6 µL/min/mg | half-life at 1 μM (male, Sprague-Dawley, rat, Calculated half-life (in parentheses)): 75 min | half-life at 1 μM [9]: > 60 min
Structure (SMILES): CC/C=C\C/C=C\C/C=C\C/C=C\C/C=C\CCCC(=O)OCCNC(=O)CCCCCCCCCCCCCCC [Compound I-5]
